Measurements published in US20090099167A1, “Organic compounds” (Novartis Institutes for Biomedical Research, priority 2004, published 2009).

How the values were obtained:
c-Src kinase = c-Src kinase (Homo sapiens, UniProt P12931); assay: c-Src kinase inhibition; type: biochemical; settings: Table 5; read-out: c-scr, IC50 class
From the text: An appropriate assay is described in Andrejauskas-Buchdunger et al., Cancer Res. 52, 5353-8 (1992).

HER-1 = HER-1 (Homo sapiens, UniProt P00533); assay: HER-1 kinase inhibition; type: biochemical; settings: Table 5; read-out: HER-1, IC50 class
Sequence of HER-1 (P00533 25-1210, species assumed): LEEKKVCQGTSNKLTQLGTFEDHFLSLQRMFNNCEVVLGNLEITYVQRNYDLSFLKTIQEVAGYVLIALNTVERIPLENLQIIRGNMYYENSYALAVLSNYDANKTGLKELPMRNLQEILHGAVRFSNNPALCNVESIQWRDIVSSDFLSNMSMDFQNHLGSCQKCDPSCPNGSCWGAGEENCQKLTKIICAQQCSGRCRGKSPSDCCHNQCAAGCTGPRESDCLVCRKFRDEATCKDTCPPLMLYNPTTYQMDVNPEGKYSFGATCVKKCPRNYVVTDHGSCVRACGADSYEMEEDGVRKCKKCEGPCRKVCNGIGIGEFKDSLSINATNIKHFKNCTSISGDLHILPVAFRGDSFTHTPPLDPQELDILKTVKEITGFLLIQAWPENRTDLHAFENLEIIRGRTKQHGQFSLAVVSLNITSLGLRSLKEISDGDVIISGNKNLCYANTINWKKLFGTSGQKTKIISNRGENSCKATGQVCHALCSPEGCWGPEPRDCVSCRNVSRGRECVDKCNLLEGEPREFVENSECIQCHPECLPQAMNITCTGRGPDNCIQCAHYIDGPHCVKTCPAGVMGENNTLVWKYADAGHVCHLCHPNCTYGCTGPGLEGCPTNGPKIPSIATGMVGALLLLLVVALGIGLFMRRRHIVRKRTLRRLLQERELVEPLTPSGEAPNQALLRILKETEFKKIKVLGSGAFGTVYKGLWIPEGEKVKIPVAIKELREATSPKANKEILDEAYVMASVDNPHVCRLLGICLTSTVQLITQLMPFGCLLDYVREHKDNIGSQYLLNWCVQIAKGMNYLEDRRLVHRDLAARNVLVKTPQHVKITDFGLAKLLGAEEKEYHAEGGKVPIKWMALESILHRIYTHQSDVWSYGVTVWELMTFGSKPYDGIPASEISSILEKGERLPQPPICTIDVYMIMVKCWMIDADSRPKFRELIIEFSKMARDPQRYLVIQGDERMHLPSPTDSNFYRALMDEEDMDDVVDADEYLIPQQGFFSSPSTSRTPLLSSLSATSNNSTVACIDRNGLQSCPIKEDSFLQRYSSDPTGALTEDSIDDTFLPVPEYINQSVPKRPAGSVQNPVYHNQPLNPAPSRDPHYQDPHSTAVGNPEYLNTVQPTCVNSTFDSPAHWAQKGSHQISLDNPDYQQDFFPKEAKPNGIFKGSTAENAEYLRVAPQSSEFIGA

human Flt-3 = biological target: T1, human Flt-3 (Homo sapiens, UniProt P36888); assay: Flt3 kinase inhibition, GST-Flt-3, 33P incorporation into poly(Glu,Tyr); type: biochemical; settings: Table 5; read-out: Flt-3, IC50 class
T1 construct: expressing the amino acid region amino acids 563-993 of the cytoplasmic kinase domain of human Flt-3; made in house; host or cells: Sf9 (baculovirus)
T1 sequence (P36888 563-993): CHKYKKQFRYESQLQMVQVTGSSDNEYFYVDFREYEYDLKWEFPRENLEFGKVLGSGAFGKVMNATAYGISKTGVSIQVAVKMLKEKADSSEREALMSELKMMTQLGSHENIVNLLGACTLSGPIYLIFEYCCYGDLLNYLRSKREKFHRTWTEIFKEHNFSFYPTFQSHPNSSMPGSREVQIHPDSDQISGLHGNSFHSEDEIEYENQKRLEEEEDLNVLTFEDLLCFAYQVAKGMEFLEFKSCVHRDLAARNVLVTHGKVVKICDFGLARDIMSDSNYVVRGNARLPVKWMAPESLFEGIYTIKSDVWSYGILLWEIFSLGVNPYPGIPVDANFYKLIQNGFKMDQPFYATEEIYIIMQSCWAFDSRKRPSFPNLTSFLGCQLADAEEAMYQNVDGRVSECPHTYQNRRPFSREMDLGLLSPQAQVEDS

[1] = biological target: T2, human VEGF-R2 receptor (KDR) (Homo sapiens, UniProt P35968); assay: VEGF-induced KDR autophosphorylation in transfected CHO cells, sandwich ELISA; type: cell-based; settings: Table 5; read-out: KDR, IC50 class
T2 construct: expressed in transfected cells; host or cells: CHO cells
T2 sequence (P35968 20-1356): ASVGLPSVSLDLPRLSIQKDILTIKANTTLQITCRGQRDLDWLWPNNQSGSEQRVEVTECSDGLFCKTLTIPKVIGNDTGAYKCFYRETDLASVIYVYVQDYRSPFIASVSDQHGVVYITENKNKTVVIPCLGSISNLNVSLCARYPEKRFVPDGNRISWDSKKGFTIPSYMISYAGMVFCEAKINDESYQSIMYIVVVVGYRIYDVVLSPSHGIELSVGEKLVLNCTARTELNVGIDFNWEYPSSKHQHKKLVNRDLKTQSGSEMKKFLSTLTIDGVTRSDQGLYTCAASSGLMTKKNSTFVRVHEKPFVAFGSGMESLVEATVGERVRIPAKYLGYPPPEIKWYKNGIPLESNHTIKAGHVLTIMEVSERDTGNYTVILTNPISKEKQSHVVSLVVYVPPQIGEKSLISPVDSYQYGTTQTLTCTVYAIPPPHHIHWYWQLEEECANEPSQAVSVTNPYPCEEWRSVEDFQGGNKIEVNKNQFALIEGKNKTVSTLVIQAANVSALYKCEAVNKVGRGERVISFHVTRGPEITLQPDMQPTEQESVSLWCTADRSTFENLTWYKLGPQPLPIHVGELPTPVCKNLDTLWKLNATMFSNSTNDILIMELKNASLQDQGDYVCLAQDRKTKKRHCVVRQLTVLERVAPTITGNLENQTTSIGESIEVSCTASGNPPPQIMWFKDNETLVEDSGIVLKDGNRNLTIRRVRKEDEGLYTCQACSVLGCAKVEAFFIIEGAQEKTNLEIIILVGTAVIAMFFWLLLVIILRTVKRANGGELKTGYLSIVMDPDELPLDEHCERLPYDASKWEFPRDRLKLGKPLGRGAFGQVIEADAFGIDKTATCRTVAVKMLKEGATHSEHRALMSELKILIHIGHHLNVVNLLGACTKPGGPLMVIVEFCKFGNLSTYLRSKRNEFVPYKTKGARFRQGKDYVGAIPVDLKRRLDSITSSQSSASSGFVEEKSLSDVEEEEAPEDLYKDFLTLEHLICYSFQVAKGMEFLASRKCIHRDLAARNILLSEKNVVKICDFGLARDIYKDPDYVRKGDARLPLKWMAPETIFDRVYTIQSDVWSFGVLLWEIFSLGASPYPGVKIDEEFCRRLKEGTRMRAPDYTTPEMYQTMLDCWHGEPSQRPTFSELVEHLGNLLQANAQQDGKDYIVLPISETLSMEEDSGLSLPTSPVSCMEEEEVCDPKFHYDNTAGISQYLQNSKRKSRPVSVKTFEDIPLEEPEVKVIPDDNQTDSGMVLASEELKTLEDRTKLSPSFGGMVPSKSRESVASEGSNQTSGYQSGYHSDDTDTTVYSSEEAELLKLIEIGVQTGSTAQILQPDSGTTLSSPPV
Procedure: The compounds to be tested are then diluted in culture medium (without FCS, with 0.1% bovine serum albumin) and added to the cells. (Controls comprise medium without test compounds). After two hours' incubation at 37° C., recombinant VEGF is added; the final VEGF concentration is 20 ng/ml). After a further five minutes incubation at 37° C., the cells are washed twice with ice-cold PBS (phosphate-buffered saline) and immediately lysed in 100 μl lysis buffer per well. The lysates are then centrifuged to remove the cell nuclei, and the protein concentrations of the supernatants are determined using a commercial protein assay (BIORAD). The lysates can then either be immediately used or, if necessary, stored at −20° C. A sandwich ELISA is carried out to measure the VEGF-R2 phosphorylation: a monoclonal antibody to VEGF-R2 (for example Mab 1495.12.14; ProQinase, Freiburg, Germany) is immobilized on black ELISA plates (OptiPlate™ HTRF-96 from Packard). The plates are then washed and the remaining free protein-binding sites are saturated with 3% TopBlock® (Juro, Cat. # TB232010) in phosphate buffered saline with Tween 20® (polyoxyethylen(20)-sorbitane monolaurate, ICI/Uniquema) (PBST). The cell lysates (20 μg protein per well) are then incubated in these plates overnight at 4° C. together with an antiphosphotyrosine antibody coupled with alkaline phosphatase (PY20:AP from Zymed). […] The luminescence is measured in a Packard Top Count Microplate Scintillation Counter. The difference between the signal of the positive control (stimulated with VEGF) and that of the negative control (not stimulated with VEGF) corresponds to VEGF-induced VEGF-R2 phosphorylation (=100%). The activity of the tested substances is calculated as percent inhibition of VEGF-induced VEGF-R2 phosphorylation, wherein the concentration of substance that induces half the maximum inhibition is defined as the IC50 (inhibitory dose for 50% inhibition). […] Flt3 kinase inhibition is determined as follows: The baculovirus donor vector pFbacG01 (GIBCO) is used to generate a recombinant baculovirus expressing the amino acid region amino acids 563-993 of the cytoplasmic kinase domain of human Flt-3. The coding sequence for the cytoplasmic domain of Flt-3 is amplified by PCR from human c-DNA libraries (Clontech). The amplified DNA fragments and the pFbacG01 vector are made compatible for ligation by digestion with BamH1 and HindIII. Ligation of these DNA fragments results in the baculovirus donor plasmid Flt-3(1.1). The production of the viruses, the expression of proteins in Sf9 cells and the purification of the GST-fused proteins are performed as follows: Production of virus: Transfer vector (pFbacG01-Flt-3) containing the Flt-3 kinase domain is transfected into the DH10Bac cell line (GIBCO) and the transfected cells are plated on selective agar plates. Colonies without insertion of the fusion sequence into the viral genome (carried by the bacteria) are blue. Single white colonies are picked and viral DNA (bacmid) is isolated from the bacteria by standard plasmid purification procedures. Sf9 or Sf21 cells (American Type Culture Collection) are then transfected in flasks with the viral DNA using Cellfectin reagent. Determination of small scale protein expression in Sf9 cells: Virus containing media is collected from the transfected cell culture and used for infection to increase its titre. Virus containing media obtained after two rounds of infection is used for large-scale protein expression. For large-scale protein expression 100 cm^2 round tissue culture plates are seeded with 5×10^7 cells/plate and infected with 1 mL of virus-containing media (approx. 5 MOIs). After 3 days the cells are scraped off the plate and centrifuged at 500 rpm for 5 min. Cell pellets from 10-20, 100 cm^2 plates, are resuspended in 50 mL of ice-cold lysis buffer (25 mMTris-HCl, pH 7.5, 2 mM EDTA, 1% NP-40, 1 mM DTT, 1 mM PMSF). The cells are stirred on ice for 15 min and then centrifuged at 5000 rpms for 20 min. […]

Sequence of c-Src kinase (P12931 whole entry): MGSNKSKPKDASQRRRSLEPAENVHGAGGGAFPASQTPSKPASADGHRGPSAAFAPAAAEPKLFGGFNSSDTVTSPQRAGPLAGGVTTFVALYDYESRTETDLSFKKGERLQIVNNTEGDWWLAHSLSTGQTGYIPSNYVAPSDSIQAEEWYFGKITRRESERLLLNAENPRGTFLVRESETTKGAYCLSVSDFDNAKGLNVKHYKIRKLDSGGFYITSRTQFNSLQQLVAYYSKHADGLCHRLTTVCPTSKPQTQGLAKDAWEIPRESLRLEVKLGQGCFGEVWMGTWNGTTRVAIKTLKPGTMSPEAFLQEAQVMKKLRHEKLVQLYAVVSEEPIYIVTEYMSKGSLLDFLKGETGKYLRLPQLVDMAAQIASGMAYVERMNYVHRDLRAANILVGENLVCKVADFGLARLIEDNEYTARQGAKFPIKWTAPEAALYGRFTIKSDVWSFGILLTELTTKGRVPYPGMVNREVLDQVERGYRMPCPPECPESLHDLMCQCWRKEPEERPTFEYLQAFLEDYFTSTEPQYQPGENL

SMILES	melting point	IC50 (c-Src kinase)	IC50 (HER-1)	IC50 (human Flt-3)	IC50 [1]
COc1ccc(-c2cnn3c(N)c(-c4ccc(F)cc4)c(C)nc23)cc1 [Example 96, 6-(4-Fluoro-phenyl)-3-(4-methoxy-phenyl)-5-methyl-pyrazolo[1,5-a]pyrimidin-7-ylamine]	243 to 244 °C	< 1 µM	1 to 10 µM	> 10 µM	> 10 µM
Cc1nc2c(-c3cccc(N4CCN(CCO)CC4)c3)cnn2c(N)c1-c1ccc(F)cc1 [Example 97, 2-(4-{3-[7-Amino-6-(4-fluoro-phenyl)-5-methyl-pyrazolo[1,5-a]pyrimidin-3-yl]-phenyl}-piperazin-1-yl)-ethanol]	209 to 212 °C	< 1 µM	> 10 µM	> 10 µM	1 to 10 µM
Cc1nc2c(-c3cccc(N4CCN(C)CC4)c3)cnn2c(N)c1-c1ccc(F)c(F)c1 [Example 98, 6-(3,4-Difluoro-phenyl)-5-methyl-3-[3-(4-methyl-piperazin-1-yl)-phenyl]-pyrazolo[1,5-a]pyrimidin-7-ylamine]	216 to 219 °C	< 1 µM	> 10 µM	> 10 µM	> 10 µM
COc1ccc(-c2cnn3c(N)c(-c4ccc(F)c(F)c4)c(C)nc23)cc1OC [Example 99, 6-(3,4-Difluoro-phenyl)-3-(3,4-dimethoxy-phenyl)-5-methyl-pyrazolo[1,5-a]pyrimidin-7-ylamine]	230 to 235 °C	< 1 µM	> 10 µM	> 10 µM	> 10 µM
Cc1nc2c(-c3cccc(N4CCN(CCO)CC4)c3)cnn2c(N)c1-c1ccc(F)c(Cl)c1 [Example 100, 2-(4-{3-[7-Amino-6-(3-chloro-4-fluoro-phenyl)-5-methyl-pyrazolo[1,5-a]pyrimidin-3-yl]-phenyl}-piperazin-1-yl)-ethanol]	104 to 107 °C	< 1 µM	> 10 µM	> 10 µM	1 to 10 µM
Cc1nc2c(-c3cccc(N4CCN(CCO)CC4)c3)cnn2c(N)c1-c1ccc(F)c(F)c1 [Example 101, 2-(4-{3-[7-Amino-6-(3,4-difluoro-phenyl)-5-methyl-pyrazolo[1,5-a]pyrimidin-3-yl]-phenyl}-piperazin-1-yl)-ethanol]	172 to 174 °C	< 1 µM	> 10 µM	> 10 µM	1 to 10 µM
Cc1nc2c(-c3cccc(N4CCC(N5CCCC5)CC4)c3)cnn2c(N)c1-c1cccc(Cl)c1 [Example 102, 6-(3-Chloro-phenyl)-5-methyl-3-[3-(4-pyrrolidin-1-yl-piperidin-1-yl)-phenyl]-pyrazolo[1,5-a]pyrimidin-7-ylamine]	188 to 193 °C	< 1 µM	> 10 µM	> 10 µM	> 10 µM
Cc1nc2c(-c3cccc(N4CCC(N5CCCC5)CC4)c3)cnn2c(N)c1-c1ccc(F)cc1 [Example 103, 6-(4-Fluoro-phenyl)-5-methyl-3-[3-(4-pyrrolidin-1-yl-piperidin-1-yl)-phenyl]-pyrazolo[1,5-a]pyrimidin-7-ylamine]	244 to 249 °C	< 1 µM	> 10 µM	> 10 µM	> 10 µM
